Results from PubChem BioAssay (NCI).
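A five-concentration, 48-hour dose response in 96-well plates underlies each endpoint, interpolated linearly between surrounding concentrations. GI50: concentration for 50% inhibition of growth. TGI marks complete inhibition of growth.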

Assays:
Assay in all cases: NCI tumour cell line growth inhibition, 48 h
[1] = tested on: MOLT-4 leukemia
[2] = tested on: A549 NSCLC
[3] = tested on: OVCAR-4 ovarian
[4] = tested on: SN12C renal
[5] = tested on: HOP-92 NSCLC
[6] = tested on: HCT-116 colon
[7] = tested on: SF-268 CNS
[8] = tested on: ACHN renal
[9] = tested on: NCI-H23 lung
[10] = tested on: RPMI-8226 leukemia
[11] = tested on: HCC-2998 colon
[12] = tested on: SF-295 CNS
[13] = tested on: RXF 393 renal
[14] = tested on: LOX IMVI melanoma
[15] = tested on: NCI/ADR-RES ovarian
[16] = tested on: HS 578T breast
[17] = tested on: DU-145 prostate
[18] = tested on: UACC-62 melanoma
[19] = tested on: MCF7 breast
[20] = tested on: 786-0 renal
[21] = tested on: SR leukemia
[22] = tested on: OVCAR-5 ovarian
[23] = tested on: CAKI-1 renal
[24] = tested on: HOP-62 NSCLC
[25] = tested on: SK-OV-3 ovarian
[26] = tested on: CCRF-CEM leukemia
[27] = tested on: SK-MEL-28 melanoma
[28] = tested on: MDA-MB-435
[29] = tested on: IGROV1 ovarian
[30] = tested on: NCI-H460 lung
[31] = tested on: HL-60(TB) leukemia
[32] = tested on: A498 renal
[33] = tested on: SNB-19 CNS
[34] = tested on: SW-620 colon
[35] = tested on: M14 melanoma
[36] = tested on: OVCAR-8 ovarian
[37] = tested on: SK-MEL-2 melanoma
[38] = tested on: KM12 colon
[39] = tested on: T-47D breast
[40] = tested on: NCI-H522 lung
[41] = tested on: PC-3 prostate
[42] = tested on: UO-31 renal
[43] = tested on: NCI-H226 lung
[44] = tested on: MDA-MB-231 breast
[45] = tested on: K-562 leukemia
[46] = tested on: OVCAR-3 ovarian
[47] = tested on: HCT-15 colon
[48] = tested on: BT-549 breast
[49] = tested on: EKVX NSCLC
[50] = tested on: SK-MEL-5 melanoma
[51] = tested on: U251 CNS
[52] = tested on: SNB-75 CNS
[53] = tested on: SF-539 CNS
[54] = tested on: TK-10 renal
[55] = tested on: UACC-257 melanoma
[56] = tested on: MALME-3M melanoma
[57] = tested on: HT29 colon
[58] = tested on: COLO 205 colon

## Cc1ccc(S(=O)(=O)c2nc(-c3ccc(F)cc3)oc2S(C)(=O)=O)cc1
[1]
  GI50: 4.61 µM
  TGI: > 100 µM
[2]
  GI50: > 100 µM
  TGI: > 100 µM
[3]
  GI50: > 100 µM
  TGI: > 100 µM
[4]
  GI50: 8.51 µM
  TGI: > 100 µM
[5]
  GI50: 6.69 µM
  TGI: > 100 µM
[6]
  GI50: 1.53 µM
  TGI: 2.94 µM
[7]
  GI50: > 35 µM
  TGI: > 100 µM
[8]
  GI50: 1.74 µM
  TGI: 3.13 µM
[9]
  GI50: 3.13 µM
  TGI: > 100 µM
[10]
  GI50: > 100 µM
  TGI: > 100 µM
[11]
  GI50: > 100 µM
  TGI: > 100 µM
[12]
  GI50: > 100 µM
  TGI: > 100 µM
[13]
  GI50: 5.16 µM
  TGI: > 100 µM
[14]
  GI50: 2.04 µM
[15]
  GI50: > 31.8 µM
  TGI: > 100 µM
[16]
  TGI: > 52.9 µM
[17]
  GI50: > 100 µM
  TGI: > 100 µM
[18]
  TGI: > 100 µM
[19]
  GI50: 3.78 µM
  TGI: > 100 µM
[20]
  GI50: > 100 µM
  TGI: > 100 µM
[21]
  GI50: 1.06 µM
[22]
  GI50: > 100 µM
  TGI: > 100 µM
[23]
  GI50: 4.83 µM
  TGI: > 100 µM
[24]
  GI50: > 100 µM
  TGI: > 100 µM
[25]
  GI50: > 93.5 µM
  TGI: > 100 µM
[26]
  GI50: 2.92 µM
  TGI: > 100 µM
[27]
  GI50: > 100 µM
  TGI: > 100 µM
[28]
  GI50: 13.7 µM
  TGI: > 100 µM
[29]
  GI50: > 100 µM
  TGI: > 100 µM
[30]
  GI50: > 100 µM
  TGI: > 100 µM
[31]
  GI50: 1.65 µM
  TGI: 5.57 µM
[32]
  GI50: > 100 µM
  TGI: > 100 µM
[33]
  GI50: > 77.6 µM
  TGI: > 100 µM
[34]
  GI50: 2.4 µM
[35]
  GI50: > 100 µM
  TGI: > 100 µM
[36]
  GI50: 6.88 µM
  TGI: > 100 µM
[37]
  GI50: > 21 µM
  TGI: > 100 µM
[38]
  GI50: > 100 µM
  TGI: > 100 µM
[39]
  GI50: 1.73 µM
  TGI: 3.67 µM
[40]
  GI50: 2.27 µM
[41]
  GI50: > 21.9 µM
  TGI: > 100 µM
[42]
  GI50: > 100 µM
  TGI: > 100 µM
[43]
  GI50: > 20.2 µM
  TGI: > 100 µM
[44]
  GI50: > 100 µM
  TGI: > 100 µM
[45]
  GI50: 2.94 µM
  TGI: > 100 µM
[46]
  GI50: > 100 µM
  TGI: > 100 µM
[47]
  GI50: 3.95 µM
  TGI: > 100 µM
[48]
  GI50: 14.1 µM
  TGI: > 100 µM
[49]
  GI50: > 100 µM
  TGI: > 100 µM
[50]
  GI50: > 100 µM
  TGI: > 100 µM
[51]
  GI50: 16.9 µM
  TGI: > 100 µM
[52]
  GI50: > 23.5 µM
  TGI: > 100 µM
[53]
  GI50: > 100 µM
  TGI: > 100 µM

## COc1cc2c(O[C@@H]3OC[C@H](OC(C)=O)[C@H](OC(C)=O)[C@H]3O)c3c(c(-c4ccc5c(c4)OCO5)c2cc1OC)C(=O)OC3
[1]
  GI50: 0.437 µM
  TGI: > 10 µM
[2]
  GI50: 0.613 µM
  TGI: > 10 µM
[3]
  GI50: > 3.12 µM
  TGI: > 10 µM
[4]
  GI50: 0.284 µM
  TGI: > 10 µM
[5]
  GI50: 0.178 µM
  TGI: 1.4 µM
[6]
  GI50: 0.167 µM
  TGI: > 10 µM
[7]
  GI50: 1.47 µM
  TGI: > 10 µM
[8]
  GI50: 0.566 µM
  TGI: > 10 µM
[9]
  GI50: 3.24 µM
  TGI: > 10 µM
[10]
  GI50: 0.0647 µM
  TGI: > 3.75 µM
[11]
  GI50: 1.56 µM
  TGI: > 10 µM
[12]
  GI50: 0.27 µM
  TGI: 0.923 µM
[13]
  GI50: 0.267 µM
  TGI: > 10 µM
[54]
  TGI: > 10 µM
[14]
  GI50: 0.0233 µM
  TGI: 0.0908 µM
[15]
  GI50: 1.83 µM
  TGI: > 10 µM
[16]
  GI50: 3.99 µM
  TGI: > 10 µM
[17]
  GI50: 0.754 µM
  TGI: > 10 µM
[18]
  GI50: 0.155 µM
  TGI: 0.517 µM
[19]
  GI50: 0.684 µM
  TGI: > 10 µM
[55]
  GI50: 0.276 µM
  TGI: 1.17 µM
[20]
  GI50: 2.03 µM
  TGI: > 7.81 µM
[21]
  GI50: 0.059 µM
  TGI: > 10 µM
[22]
  GI50: 0.112 µM
  TGI: > 10 µM
[23]
  GI50: 0.0931 µM
  TGI: > 10 µM
[24]
  GI50: 0.797 µM
  TGI: > 10 µM
[25]
  TGI: > 10 µM
[26]
  GI50: 0.498 µM
  TGI: > 10 µM
[27]
  GI50: 0.264 µM
  TGI: 2.87 µM
[28]
  GI50: 0.359 µM
  TGI: 3.06 µM
[29]
  GI50: 0.4 µM
  TGI: > 10 µM
[30]
  GI50: 0.255 µM
  TGI: > 10 µM
[31]
  GI50: 0.433 µM
  TGI: > 10 µM
[32]
  GI50: 1.13 µM
  TGI: > 10 µM
[33]
  GI50: > 9.57 µM
  TGI: > 10 µM
[34]
  GI50: 0.491 µM
  TGI: > 10 µM
[56]
  GI50: 0.565 µM
  TGI: > 5.34 µM
[57]
  GI50: 0.165 µM
  TGI: > 10 µM
[35]
  GI50: 0.192 µM
  TGI: 0.649 µM
[36]
  GI50: 0.189 µM
  TGI: > 10 µM
[37]
  GI50: 1.05 µM
  TGI: 6.91 µM
[38]
  GI50: 0.471 µM
  TGI: > 10 µM
[39]
  GI50: 0.115 µM
  TGI: > 10 µM
[58]
  GI50: 0.0764 µM
  TGI: > 10 µM
[40]
  GI50: 0.252 µM
  TGI: > 10 µM
[41]
  GI50: 0.87 µM
  TGI: > 10 µM
[42]
  GI50: 1.78 µM
  TGI: 6.74 µM
[43]
  GI50: 0.253 µM
  TGI: > 10 µM
[44]
  GI50: 0.0754 µM
  TGI: 1.8 µM
[45]
  GI50: 0.436 µM
  TGI: > 10 µM
[46]
  GI50: > 5.48 µM
  TGI: > 10 µM
[47]
  GI50: 0.725 µM
  TGI: > 10 µM
[48]
  GI50: 0.0722 µM
  TGI: > 7.76 µM
[49]
  GI50: 0.859 µM
  TGI: > 10 µM
[50]
  GI50: 0.0572 µM
[51]
  GI50: 1.16 µM
  TGI: > 10 µM
[52]
  GI50: 0.274 µM
  TGI: > 5.89 µM
[53]
  GI50: 0.437 µM
  TGI: > 10 µM
